Reference: patent US7932283B2, “Fungicide N-cyclopropyl-sulfonylamide derivatives” (Bayer Cropscience AG, priority 2006, dated 2011)

Experiment: logP by HPLC on reversed-phase column (C 18), EEC Directive 79/B31 Annex V.A8, methods A and B
Assay type: physicochemical
Details: reversed-phase HPLC column (C 18), LogP method A: HPLC reversed-phase C 18, 43° C., 0.1% aqueous phosphoric acid / acetonitrile, linear gradient 10% to 90% acetonitrile
Description: Calibration was carried out using unbranched alkan-2-ones (having 3 to 16 carbon atoms) with known logP values (determination of the logP values by the retention times using linear interpolation between two successive alkanones).

SMILES | chromatographic logP
Cc1noc(C)c1C(=O)N(C1CC1)S(=O)(=O)c1ccc(C(F)(F)F)cc1 [Compound 588] | 3.46
CCc1onc(C(C)C)c1C(=O)N(C1CC1)S(=O)(=O)c1cccc(O)c1 [Compound 589] | 4.18
CCc1onc(C(C)C)c1C(=O)N(C1CC1)S(=O)(=O)c1ccc(C(F)(F)F)cc1 [Compound 590] | 4.37
Cc1noc(C)c1C(=O)N(C1CC1)S(=O)(=O)c1ccc(O)c(O)c1 [Compound 591] | 3.72
Cc1noc(C)c1C(=O)N(C1CC1)S(=O)(=O)c1ccc(O)cc1O [Compound 592] | 3.41
Cc1noc(C)c1C(=O)N(C1CC1)S(=O)(=O)c1ccc(C(C)(C)C)cc1 [Compound 593] | 4.03
CCc1onc(C(C)C)c1C(=O)N(C1CC1)S(=O)(=O)c1ccc(O)c(C(F)(F)F)c1 [Compound 594] | 4.82
CCc1onc(C(C)C)c1C(=O)N(C1CC1)S(=O)(=O)c1ccc(O)c(O)c1 [Compound 595] | 4.77
CCc1onc(C(C)C)c1C(=O)N(C1CC1)S(=O)(=O)c1ccc(O)cc1O [Compound 596] | 4.41
CCc1onc(C(C)C)c1C(=O)N(C1CC1)S(=O)(=O)c1ccc(C(C)(C)C)cc1 [Compound 597] | 4.98
Cn1nc(C(=O)N(C2CC2)S(=O)(=O)c2ccccc2O)n(C)c1=O [Compound 608] | 1.97
COCCn1c(C)c(C(=O)N(C2CC2)S(=O)(=O)c2cccc(O)c2)sc1=O [Compound 609] | 2.01
COCCn1c(C)c(C(=O)N(C2CC2)S(=O)(=O)c2ccc(C(F)(F)F)cc2)sc1=O [Compound 610] | 2.01
Cc1c(C(=O)N(C2CC2)S(=O)(=O)c2cccc(Cl)c2)sc(=O)n1C [Compound 611] | 1.01
Cc1c(C(=O)N(C2CC2)S(=O)(=O)c2ccc(C(F)(F)F)cc2)sc(=O)n1C [Compound 612] | 2.01
Cc1c(C(=O)N(C2CC2)S(=O)(=O)c2cccc(O)c2)sc(=O)n1Cc1ccccc1 [Compound 613] | 2.01
Cc1c(C(=O)N(C2CC2)S(=O)(=O)c2ccc(C(F)(F)F)cc2)sc(=O)n1Cc1ccccc1 [Compound 614] | 4.08
CCc1c(C(=O)N(C2CC2)S(=O)(=O)c2cccc(O)c2)sc(=O)n1C1CC1 [Compound 615] | 2.01
CCc1c(C(=O)N(C2CC2)S(=O)(=O)c2ccc(C(F)(F)F)cc2)sc(=O)n1C1CC1 [Compound 616] | 2.01
CC(C)c1c(C(=O)N(C2CC2)S(=O)(=O)c2cccc(O)c2)sc(=O)n1C1CC1 [Compound 617] | 2.01
CC(C)c1c(C(=O)N(C2CC2)S(=O)(=O)c2ccc(C(F)(F)F)cc2)sc(=O)n1C1CC1 [Compound 618] | 4.03
COCCn1c(C)c(C(=O)N(C2CC2)S(=O)(=O)c2ccc(O)c(C(F)(F)F)c2)sc1=O [Compound 619] | 2.01
COCCn1c(C)c(C(=O)N(C2CC2)S(=O)(=O)c2ccc(O)cc2O)sc1=O [Compound 620] | 2.01
COCCn1c(C)c(C(=O)N(C2CC2)S(=O)(=O)c2ccc(C(C)(C)C)cc2)sc1=O [Compound 621] | 2.01
Cc1c(C(=O)N(C2CC2)S(=O)(=O)c2ccc(O)c(C(F)(F)F)c2)sc(=O)n1C [Compound 622] | 2.01

SMILES | chromatographic logP
Cc1c(C(=O)N(C2CC2)S(=O)(=O)c2ccc(O)c(O)c2)sc(=O)n1C [Compound 623] | 2.01
Cc1c(C(=O)N(C2CC2)S(=O)(=O)c2ccc(C(C)(C)C)cc2)sc(=O)n1C [Compound 624] | 2.01
Cc1c(C(=O)N(C2CC2)S(=O)(=O)c2ccc(O)c(C(F)(F)F)c2)sc(=O)n1Cc1ccccc1 [Compound 625] | 3.01
Cc1c(C(=O)N(C2CC2)S(=O)(=O)c2ccc(O)c(O)c2)sc(=O)n1Cc1ccccc1 [Compound 626] | 3.01
Cc1c(C(=O)N(C2CC2)S(=O)(=O)c2ccc(O)cc2O)sc(=O)n1Cc1ccccc1 [Compound 627] | 4.03
Cc1c(C(=O)N(C2CC2)S(=O)(=O)c2ccc(C(C)(C)C)cc2)sc(=O)n1Cc1ccccc1 [Compound 628] | 3.01
CCc1c(C(=O)N(C2CC2)S(=O)(=O)c2ccc(Cl)c(C(F)(F)F)c2)sc(=O)n1C1CC1 [Compound 629] | 3.01
CCc1c(C(=O)N(C2CC2)S(=O)(=O)c2ccc(O)c(O)c2)sc(=O)n1C1CC1 [Compound 630] | 4.08
CCc1c(C(=O)N(C2CC2)S(=O)(=O)c2ccc(O)cc2O)sc(=O)n1C1CC1 [Compound 631] | 2.01
CCc1c(C(=O)N(C2CC2)S(=O)(=O)c2ccc(C(C)(C)C)cc2)sc(=O)n1C1CC1 [Compound 632] | 3.01
CC(C)c1c(C(=O)N(C2CC2)S(=O)(=O)c2ccc(O)c(C(F)(F)F)c2)sc(=O)n1C1CC1 [Compound 633] | 3.01
CC(C)c1c(C(=O)N(C2CC2)S(=O)(=O)c2ccc(O)c(O)c2)sc(=O)n1C1CC1 [Compound 634] | 3.01
CC(C)c1c(C(=O)N(C2CC2)S(=O)(=O)c2ccc(O)cc2O)sc(=O)n1C1CC1 [Compound 635] | 2.01
CC(C)c1c(C(=O)N(C2CC2)S(=O)(=O)c2ccc(C(C)(C)C)cc2)sc(=O)n1C1CC1 [Compound 636] | 3.01
O=C(c1cccnc1)N(C1CC1)S(=O)(=O)c1ccc(C(F)(F)F)cc1 [Compound 637] | 2.74
O=C(c1cccnc1)N(C1CC1)S(=O)(=O)c1ccc(O)c(C(F)(F)F)c1 [Compound 638] | 3.1
O=C(c1cccnc1)N(C1CC1)S(=O)(=O)c1ccc(O)c(O)c1 [Compound 639] | 2.91
O=C(c1cccnc1)N(C1CC1)S(=O)(=O)c1cccc(O)c1 [Compound 642] | 2.3
O=C(c1cccnc1Cl)N(C1CC1)S(=O)(=O)c1cccc(O)c1 [Compound 643] | 2.91
O=C(c1cccnc1Cl)N(C1CC1)S(=O)(=O)c1ccccc1O [Compound 644] | 2.58
Cc1cc(C)c(C(=O)N(C2CC2)S(=O)(=O)c2cccc(O)c2O)c(O)n1 [Compound 650] | 3.57
Cc1cc(C)c(C(=O)N(C2CC2)S(=O)(=O)c2ccc(O)c(O)c2O)c(Cl)n1 [Compound 651] | 4.16
O=C(C1=C(C(F)(F)F)OCCS1)N(C1CC1)S(=O)(=O)c1ccccc1O [Compound 653] | 3.2
Cc1cc(C(=O)N(C2CC2)S(=O)(=O)c2ccccc2O)nc(Cl)n1 [Compound 654] | 2.93

Same assay, conditions: reversed-phase HPLC column (C 18), LogP method B: HPLC reversed-phase C 18, 40° C., 0.1% aqueous formic acid / acetonitrile, linear gradient 10% to 90% acetonitrile

SMILES | chromatographic logP
CCOc1nn(C)cc1C(=O)N(C1CC1)S(=O)(=O)c1ccc(Oc2ccc(Cl)c(C(F)(F)F)c2)cc1Br [Compound 553] | 4.5
CCCCCc1ccc(Oc2ccc(S(=O)(=O)N(C(=O)c3cn(C)nc3OCC)C3CC3)c(Br)c2)cc1 [Compound 560] | 5.6
Cc1nn(C)c(C(=O)N(C2CC2)S(=O)(=O)c2cccc(O)c2O)c1Cl [Compound 586] | 3.7
Cc1nocc1C(=O)N(C1CC1)S(=O)(=O)c1cccc(O)c1O [Compound 599] | 3
Cc1nocc1C(=O)N(C1CC1)S(=O)(=O)c1ccc(O)c(O)c1O [Compound 600] | 3.6
Cc1nocc1C(=O)N(C1CC1)S(=O)(=O)c1ccc(Oc2ccccc2)cc1 [Compound 601] | 3.7
Cc1nocc1C(=O)N(C1CC1)S(=O)(=O)c1ccc(Oc2ccc(Br)cc2)cc1 [Compound 602] | 4.2
Cc1oncc1C(=O)N(C1CC1)S(=O)(=O)c1cccc(O)c1O [Compound 603] | 2.2
Cc1oncc1C(=O)N(C1CC1)S(=O)(=O)c1ccc(O)c(O)c1O [Compound 604] | 2.6
Cc1oncc1C(=O)N(C1CC1)S(=O)(=O)c1ccc(Oc2ccc(Br)cc2)cc1 [Compound 605] | 3.4
Cc1oncc1C(=O)N(C1CC1)S(=O)(=O)c1ccc(Oc2ccccc2)cc1 [Compound 606] | 3.7
O=C(c1cccnc1O)N(C1CC1)S(=O)(=O)c1cccc(O)c1O [Compound 645] | 3.2
O=C(c1cccnc1O)N(C1CC1)S(=O)(=O)c1ccc(Oc2ccccc2)cc1 [Compound 646] | 3.7
O=C(c1cccnc1O)N(C1CC1)S(=O)(=O)c1ccc(O)c(O)c1O [Compound 647] | 3.7
O=C(c1cccnc1O)N(C1CC1)S(=O)(=O)c1ccc(Oc2ccc(Br)cc2)cc1 [Compound 648] | 4.3
O=C(c1cccnc1F)N(C1CC1)S(=O)(=O)c1cccc(O)c1O [Compound 649] | 2.4
Cc1cnn(C)c1C(=O)N(C1CC1)S(=O)(=O)c1cccc(O)c1O [Compound 658] | 3.1
Cc1cnn(C)c1C(=O)N(C1CC1)S(=O)(=O)c1ccc(O)c(O)c1O [Compound 659] | 3.6
Cc1cnn(C)c1C(=O)N(C1CC1)S(=O)(=O)c1ccc(Oc2ccccc2)cc1 [Compound 660] | 3.6
Cc1cnn(C)c1C(=O)N(C1CC1)S(=O)(=O)c1ccc(Oc2ccc(Br)cc2)cc1 [Compound 661] | 4.2
Cn1ncc(I)c1C(=O)N(C1CC1)S(=O)(=O)c1cccc(O)c1O [Compound 662] | 2.8
Cn1ncc(I)c1C(=O)N(C1CC1)S(=O)(=O)c1ccc(O)c(O)c1O [Compound 663] | 3.4

Same assay, conditions: reversed-phase HPLC column (C 18), Method A: 43° C., 0.1% aqueous phosphoric acid, acetonitrile

SMILES | chromatographic logP
Cc1nn(C)c(F)c1C(=O)N(C1(c2ccc(O)cc2)CC1)S(=O)(=O)c1cccc(O)c1O [Compound 669] | 4.44

Same assay, conditions: reversed-phase HPLC column (C 18), Method B: 40° C., 0.1% aqueous formic acid and acetonitrile

SMILES | chromatographic logP
COC(=O)C1(N(C(=O)c2c(C(F)(F)F)nn(C)c2F)S(=O)(=O)c2ccc(O)c(O)c2O)CC1 [Compound 667] | 4.04
